Reference: patent publication US20080009418A1, “Selective Inhibitors” (Alchemia LTD., priority 2004, published 2008)

Assays:
Mouse urotensin (mUR2) = molecular target: T1, Mouse urotensin (mUR2) (Mus musculus, UniProt Q8VIH9); assay: Radioligand binding, mouse urotensin mUR2 membranes, FlashPlate, [125I]-Urotensin II; details: compound at 10 μM; [125I]-Urotensin II, mouse mUR2 membranes
T1 construct: purchased Perkin Elmer Biosignal
T1 sequence (Q8VIH9 1-385): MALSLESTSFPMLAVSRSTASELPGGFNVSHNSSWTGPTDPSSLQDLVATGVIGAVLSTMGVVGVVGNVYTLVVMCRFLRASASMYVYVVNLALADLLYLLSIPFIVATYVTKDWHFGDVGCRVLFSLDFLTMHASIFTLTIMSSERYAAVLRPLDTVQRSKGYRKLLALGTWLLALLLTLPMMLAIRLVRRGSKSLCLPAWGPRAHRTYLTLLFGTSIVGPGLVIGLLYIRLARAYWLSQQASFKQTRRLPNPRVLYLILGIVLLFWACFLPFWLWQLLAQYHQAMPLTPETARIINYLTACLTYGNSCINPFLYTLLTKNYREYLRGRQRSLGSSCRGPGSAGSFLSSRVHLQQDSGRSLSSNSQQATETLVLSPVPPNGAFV
In short: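 Cloned mouse urotensin (mUR2) receptor membranes from Perkin Elmer Biosignal were immobilized in FlashPlate microplates using a proprietary coating. Each well got 19.5 μl buffer, then 0.5 μl of DMSO, reference ligand, or compound. Adding 5 μl of [125I]-Urotensin II, diluted to 5× final concentration in binding buffer, started binding. Plates were sealed with TopSeal-A and incubated 1 hour at room temperature in the dark. Wells were counted for 30 seconds each on a TopCount after a 60-second delay, and percentage inhibition was calculated.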

Human melanocortin (MC5) = molecular target: T2, Human melanocortin (MC5) (Homo sapiens, UniProt P33032); assay: Radioligand binding, human melanocortin MC5 membranes, FlashPlate, [125I]-NDP-αMSH; details: compound at 10 μM, [125I]-NDP-αMSH, human MC5 membranes
T2 construct: purchased Perkin Elmer Biosignal
T2 sequence (P33032 whole entry): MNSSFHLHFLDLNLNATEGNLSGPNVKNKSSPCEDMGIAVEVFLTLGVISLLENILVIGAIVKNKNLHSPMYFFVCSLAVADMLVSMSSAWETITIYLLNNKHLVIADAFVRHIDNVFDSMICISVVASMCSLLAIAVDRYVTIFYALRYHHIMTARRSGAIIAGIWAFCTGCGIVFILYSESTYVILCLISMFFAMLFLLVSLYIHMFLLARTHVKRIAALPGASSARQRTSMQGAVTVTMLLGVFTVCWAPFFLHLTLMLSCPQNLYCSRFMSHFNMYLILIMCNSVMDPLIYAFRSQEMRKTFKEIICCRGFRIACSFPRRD
In short: (§1)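 Cloned human receptor membranes were coated onto FlashPlate wells and incubated with radioligand and compound (added from a 0.5 mM DMSO daughter plate) for 1 hour at room temperature in the dark. Scintillation counting gave percent inhibition, with DMSO defining total and reference ligand defining non-specific binding.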

Human opioid (ORL1) = molecular target: T3, Human opioid (ORL1) (Homo sapiens, UniProt P41146); assay: Radioligand binding, human opioid ORL1 membranes, FlashPlate, [125I]-Nociceptin; details: compound at 10 μM, [125I]-Nociceptin, human ORL1 membranes
T3 construct: purchased Perkin Elmer Biosignal
T3 sequence (P41146 whole entry): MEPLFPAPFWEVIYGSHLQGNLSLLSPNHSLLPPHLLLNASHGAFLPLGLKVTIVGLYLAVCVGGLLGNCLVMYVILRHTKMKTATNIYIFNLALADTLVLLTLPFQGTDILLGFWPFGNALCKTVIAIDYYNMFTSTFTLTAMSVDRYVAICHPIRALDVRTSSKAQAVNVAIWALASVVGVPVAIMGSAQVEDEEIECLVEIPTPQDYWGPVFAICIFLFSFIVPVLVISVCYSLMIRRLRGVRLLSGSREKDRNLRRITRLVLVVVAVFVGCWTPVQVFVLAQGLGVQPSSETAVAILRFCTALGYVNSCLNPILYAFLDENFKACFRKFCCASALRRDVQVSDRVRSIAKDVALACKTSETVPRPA
In short: as §1

[1] = molecular target: T4, Human melanin-concentrating hormone (MCH1) (Homo sapiens, UniProt Q99705); assay: Radioligand binding, human melanin-concentrating hormone MCH1 membranes, FlashPlate, [125I]-S36057; details: compound at 10 μM, [125I]-S36057, human MCH1 membranes
T4 construct: purchased Perkin Elmer Biosignal
T4 sequence (Q99705 whole entry): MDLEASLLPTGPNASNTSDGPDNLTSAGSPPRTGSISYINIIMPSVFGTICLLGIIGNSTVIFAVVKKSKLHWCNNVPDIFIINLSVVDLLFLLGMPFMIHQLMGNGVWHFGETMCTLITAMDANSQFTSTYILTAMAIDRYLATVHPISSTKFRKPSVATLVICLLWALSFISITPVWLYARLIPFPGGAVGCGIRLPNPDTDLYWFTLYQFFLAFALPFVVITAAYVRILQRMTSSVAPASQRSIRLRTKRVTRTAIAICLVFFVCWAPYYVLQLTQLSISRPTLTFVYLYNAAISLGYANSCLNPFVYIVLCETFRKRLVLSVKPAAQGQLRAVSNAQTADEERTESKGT
In short: as §1

[2] = molecular target: T5, Human neuropeptide Y (NPY-Y1) (Homo sapiens, UniProt P25929); assay: Radioligand binding, human neuropeptide Y NPY-Y1 membranes, FlashPlate, [125I]-PYY; details: compound at 10 μM; [125I]-PYY, human NPY-Y1 membranes
T5 construct: purchased Perkin Elmer Biosignal
T5 sequence (P25929 1-384): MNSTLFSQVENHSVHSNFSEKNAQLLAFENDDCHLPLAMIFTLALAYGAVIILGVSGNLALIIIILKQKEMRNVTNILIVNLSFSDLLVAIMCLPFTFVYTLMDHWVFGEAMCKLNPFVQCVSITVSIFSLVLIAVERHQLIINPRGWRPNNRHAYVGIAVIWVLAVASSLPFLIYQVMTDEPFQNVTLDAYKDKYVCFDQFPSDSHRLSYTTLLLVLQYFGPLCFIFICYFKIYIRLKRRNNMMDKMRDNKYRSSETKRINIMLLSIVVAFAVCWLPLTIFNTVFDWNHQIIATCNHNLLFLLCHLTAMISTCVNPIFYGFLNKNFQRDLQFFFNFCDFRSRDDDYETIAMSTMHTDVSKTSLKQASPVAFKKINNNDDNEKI
In short: as §1

Human μ-opioid (MOP) = molecular target: T6, Human μ-opioid (MOP) (Homo sapiens, UniProt P35372); assay: Radioligand binding, human μ-opioid (MOP) membranes, FlashPlate, [3H]-Naloxone; details: compound at 10 μM; [3H]-Naloxone, human MOP membranes
T6 construct: purchased Perkin Elmer Biosignal
T6 sequence (P35372 whole entry): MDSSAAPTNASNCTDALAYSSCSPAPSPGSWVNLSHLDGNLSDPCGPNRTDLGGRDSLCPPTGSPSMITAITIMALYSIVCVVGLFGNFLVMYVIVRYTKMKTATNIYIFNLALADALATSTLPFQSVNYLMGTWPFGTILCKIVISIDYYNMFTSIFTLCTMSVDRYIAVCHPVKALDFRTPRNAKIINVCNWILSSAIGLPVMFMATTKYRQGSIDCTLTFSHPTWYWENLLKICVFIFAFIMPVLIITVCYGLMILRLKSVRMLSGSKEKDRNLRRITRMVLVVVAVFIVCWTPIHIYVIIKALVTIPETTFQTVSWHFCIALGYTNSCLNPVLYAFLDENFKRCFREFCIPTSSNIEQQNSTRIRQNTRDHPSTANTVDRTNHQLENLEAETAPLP
In short: as §1

Human Melanocortin (MC4) = molecular target: T7, Human Melanocortin (MC4) (Homo sapiens, UniProt P32245); assay: Radioligand binding, human melanocortin MC4 membranes, FlashPlate, [125I]-NDP-αMSH; details: compound at 10 μM, [125I]-NDP-αMSH, human MC4 membranes
T7 construct: purchased Perkin Elmer Biosignal
T7 sequence (P32245 whole entry): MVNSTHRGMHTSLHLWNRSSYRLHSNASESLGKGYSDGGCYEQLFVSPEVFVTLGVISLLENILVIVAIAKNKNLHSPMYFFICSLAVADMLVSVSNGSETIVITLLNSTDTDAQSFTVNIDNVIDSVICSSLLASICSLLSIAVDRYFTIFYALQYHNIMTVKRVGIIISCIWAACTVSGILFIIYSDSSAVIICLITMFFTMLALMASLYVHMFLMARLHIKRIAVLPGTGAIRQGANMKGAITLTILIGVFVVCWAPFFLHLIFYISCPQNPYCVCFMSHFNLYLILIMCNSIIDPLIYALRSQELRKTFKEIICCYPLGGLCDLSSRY
In short: as §1

Human Melanocortin (MC3) = molecular target: T8, Human Melanocortin (MC3) (Homo sapiens, UniProt P41968); assay: Radioligand binding, human melanocortin MC3 membranes, FlashPlate, [125I]-NDP-αMSH; details: compound at 10 μM, [125I]-NDP-αMSH, human MC3 membranes
T8 construct: purchased Perkin Elmer Biosignal
T8 sequence (P41968 whole entry): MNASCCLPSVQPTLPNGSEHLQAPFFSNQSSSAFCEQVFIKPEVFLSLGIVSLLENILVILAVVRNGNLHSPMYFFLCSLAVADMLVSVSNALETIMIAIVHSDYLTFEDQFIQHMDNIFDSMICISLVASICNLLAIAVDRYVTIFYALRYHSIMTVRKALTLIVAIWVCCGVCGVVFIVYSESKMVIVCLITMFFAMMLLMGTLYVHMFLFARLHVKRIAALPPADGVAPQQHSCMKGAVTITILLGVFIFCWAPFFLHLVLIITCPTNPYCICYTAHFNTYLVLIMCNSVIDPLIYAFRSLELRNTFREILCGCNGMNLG
In short: as §1

Human neurokinin (NK1) = molecular target: T9, Human neurokinin (NK1) (Homo sapiens, UniProt P25103); assay: Radioligand binding, human neurokinin NK1 membranes, filtration, [125I]-Substance P; details: compound at 10 μM; [125I]-Substance P, human NK1 membranes
T9 construct: purchased Perkin Elmer Biosignal
T9 sequence (P25103 whole entry): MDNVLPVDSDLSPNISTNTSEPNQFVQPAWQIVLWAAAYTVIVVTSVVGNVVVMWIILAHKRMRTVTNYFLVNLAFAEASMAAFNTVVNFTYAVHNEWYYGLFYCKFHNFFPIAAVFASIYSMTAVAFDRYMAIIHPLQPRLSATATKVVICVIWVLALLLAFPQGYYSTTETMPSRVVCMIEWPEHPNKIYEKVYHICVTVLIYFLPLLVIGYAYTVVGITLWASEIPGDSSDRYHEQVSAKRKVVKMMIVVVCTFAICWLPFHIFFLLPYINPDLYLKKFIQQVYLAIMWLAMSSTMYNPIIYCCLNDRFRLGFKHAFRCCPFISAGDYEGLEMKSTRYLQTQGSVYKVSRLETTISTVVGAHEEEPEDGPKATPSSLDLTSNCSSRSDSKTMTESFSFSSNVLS
In short: (§2)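 Filtration binding on cloned human receptor membranes (1 Unit/well), [125I]-Substance P for NK1 and [3H]-Diprenorphine for KOP, 1 h at room temperature. Filters PEI-presoaked, washed with cold 50 mM Tris-HCl pH 7.4, counted by scintillation; percent inhibition calculated, reference ligand defining non-specific binding.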

Human δ-opioid (DOP) = molecular target: T10, Human δ-opioid (DOP) (Homo sapiens, UniProt P41143); assay: Radioligand binding, human δ-opioid (DOP) membranes, FlashPlate, [3H]-Bremazocine; details: compound at 10 μM; [3H]-Bremazocine, human DOP membranes
T10 construct: purchased Perkin Elmer Biosignal
T10 sequence (P41143 whole entry): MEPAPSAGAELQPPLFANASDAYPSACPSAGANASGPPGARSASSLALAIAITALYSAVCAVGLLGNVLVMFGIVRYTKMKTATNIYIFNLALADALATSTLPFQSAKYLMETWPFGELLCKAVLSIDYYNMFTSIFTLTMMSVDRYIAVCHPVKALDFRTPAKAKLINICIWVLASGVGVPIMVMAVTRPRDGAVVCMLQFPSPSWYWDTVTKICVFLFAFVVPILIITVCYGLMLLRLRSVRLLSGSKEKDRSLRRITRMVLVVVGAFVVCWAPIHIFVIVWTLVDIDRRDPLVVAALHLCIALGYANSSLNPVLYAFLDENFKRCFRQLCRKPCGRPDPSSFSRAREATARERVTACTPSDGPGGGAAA
In short: as §1

Human κ-Opioid (KOP) = molecular target: T11, Human κ-Opioid (KOP) (Homo sapiens, UniProt P41145); assay: Radioligand binding, human κ-opioid (KOP) membranes, filtration, [3H]-Diprenorphine; details: compound at 10 μM; [3H]-Diprenorphine, human KOP membranes
T11 construct: purchased Perkin Elmer Biosignal
T11 sequence (P41145 whole entry): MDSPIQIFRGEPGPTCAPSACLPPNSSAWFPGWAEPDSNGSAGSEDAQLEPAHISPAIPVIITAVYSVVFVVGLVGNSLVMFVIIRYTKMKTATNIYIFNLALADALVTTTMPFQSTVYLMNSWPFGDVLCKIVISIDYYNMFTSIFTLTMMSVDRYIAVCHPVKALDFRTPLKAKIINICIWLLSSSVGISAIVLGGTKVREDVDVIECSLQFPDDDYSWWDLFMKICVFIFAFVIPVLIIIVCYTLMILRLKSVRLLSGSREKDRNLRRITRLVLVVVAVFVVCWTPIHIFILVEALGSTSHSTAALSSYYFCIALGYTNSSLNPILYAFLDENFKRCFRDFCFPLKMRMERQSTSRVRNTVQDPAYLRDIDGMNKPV
In short: as §2

SMILES | A11: inhibition of radioligand binding (Mouse urotensin (mUR2)) | A5: inhibition of radioligand binding (Human melanocortin (MC5)) | A10: inhibition of radioligand binding (Human opioid (ORL1); 10 µM) | A6: inhibition of radioligand binding ([1]; 10 µM) | A9: inhibition of radioligand binding [2] | A7: inhibition of radioligand binding (Human μ-opioid (MOP)) | A4: inhibition of radioligand binding (Human Melanocortin (MC4)) | A3: inhibition of radioligand binding (Human Melanocortin (MC3); 10 µM) | A8: inhibition of radioligand binding (Human neurokinin (NK1)) | A1: inhibition of radioligand binding (Human δ-opioid (DOP)) | A2: inhibition of radioligand binding (Human κ-Opioid (KOP)) | A10: inhibition of radioligand binding (Human opioid (ORL1)) | A6: inhibition of radioligand binding [1] | A3: inhibition of radioligand binding (Human Melanocortin (MC3)) | A5: inhibition of radioligand binding (Human melanocortin (MC5); 10 µM) | A4: inhibition of radioligand binding (Human Melanocortin (MC4); 10 µM)
NCCC(=O)N[C@H]1C(OCc2ccc3ccccc3c2)O[C@H](COCc2ccc3ccccc3c2)[C@@H](O)[C@@H]1OCc1ccccc1 (stereo partly shown) [compound 448] | − (“−” indicates less than 50% inhibition at 10 μM) | + (“+” indicates greater than 50% inhibition at 10 μM) | − (“−” indicates less than 50% inhibition at 10 μM) | − (“−” indicates less than 50% inhibition at 10 μM) | − (“−” indicates less than 50% inhibition at 10 μM) | − (“−” indicates less than 50% inhibition at 10 μM) | + (“+” indicates greater than 50% inhibition at 10 μM) | − (“−” indicates less than 50% inhibition at 10 μM) | + (“+” indicates greater than 50% inhibition at 10 μM) | − (“−” indicates less than 50% inhibition at 10 μM) | − (“−” indicates less than 50% inhibition at 10 μM) |  |  |  |  | 
NCCC(=O)N[C@H]1C(OCc2ccc3ccccc3c2)O[C@H](COCc2ccc3ccccc3c2)[C@@H](O)[C@@H]1OCc1ccccc1 (stereo partly shown) [compound 449] | − (“−” indicates less than 50% inhibition at 10 μM) | + (“+” indicates greater than 50% inhibition at 10 μM) | + (“+” indicates greater than 50% inhibition at 10 μM) | + (“+” indicates greater than 50% inhibition at 10 μM) | − (“−” indicates less than 50% inhibition at 10 μM) | − (“−” indicates less than 50% inhibition at 10 μM) | + (“+” indicates greater than 50% inhibition at 10 μM) | + (“+” indicates greater than 50% inhibition at 10 μM) | + (“+” indicates greater than 50% inhibition at 10 μM) | − (“−” indicates less than 50% inhibition at 10 μM) | − (“−” indicates less than 50% inhibition at 10 μM) |  |  |  |  | 
NCCC(=O)N[C@H]1C(OCc2ccc3ccccc3c2)O[C@H](COCc2ccccc2)[C@@H](O)[C@@H]1OCc1ccccc1 (stereo partly shown) [compound 450] | − (“−” indicates less than 50% inhibition at 10 μM) | − (“−” indicates less than 50% inhibition at 10 μM) |  |  | − (“−” indicates less than 50% inhibition at 10 μM) | − (“−” indicates less than 50% inhibition at 10 μM) | − (“−” indicates less than 50% inhibition at 10 μM) |  | + (“+” indicates greater than 50% inhibition at 10 μM) | − (“−” indicates less than 50% inhibition at 10 μM) | − (“−” indicates less than 50% inhibition at 10 μM) | − (“−” indicates less than 50% inhibition at 10 μM) | − (“−” indicates less than 50% inhibition at 10 μM) | − (“−” indicates less than 50% inhibition at 10 μM) |  | 
NCCC(=O)NC1C(OCc2ccc3ccccc3c2)OC(COCc2ccccc2)C(O)C1OCc1ccccc1 (stereo not shown) [compound 451] | − (“−” indicates less than 50% inhibition at 10 μM) |  |  |  | − (“−” indicates less than 50% inhibition at 10 μM) | − (“−” indicates less than 50% inhibition at 10 μM) | + (“+” indicates greater than 50% inhibition at 10 μM) |  | + (“+” indicates greater than 50% inhibition at 10 μM) | − (“−” indicates less than 50% inhibition at 10 μM) | − (“−” indicates less than 50% inhibition at 10 μM) | − (“−” indicates less than 50% inhibition at 10 μM) | − (“−” indicates less than 50% inhibition at 10 μM) | − (“−” indicates less than 50% inhibition at 10 μM) | − (“−” indicates less than 50% inhibition at 10 μM) | 
NCCCC(=O)NC1C(OCc2ccc3ccccc3c2)OC(COCc2ccccc2)C(O)C1OCc1ccc2ccccc2c1 (stereo not shown) [compound 462] | − (“−” indicates less than 50% inhibition at 10 μM) | + (“+” indicates greater than 50% inhibition at 10 μM) | + (“+” indicates greater than 50% inhibition at 10 μM) |  | − (“−” indicates less than 50% inhibition at 10 μM) | − (“−” indicates less than 50% inhibition at 10 μM) |  | − (“−” indicates less than 50% inhibition at 10 μM) | + (“+” indicates greater than 50% inhibition at 10 μM) | − (“−” indicates less than 50% inhibition at 10 μM) | − (“−” indicates less than 50% inhibition at 10 μM) |  | − (“−” indicates less than 50% inhibition at 10 μM) |  |  | − (“−” indicates less than 50% inhibition at 10 μM)
